In US20040034093A1, “Methods for enhancing motor performance and/or endurance” (priority 2002, published 2004):

Key:
[1] = cited from earlier work; for absorption by the gut: Traber et al., 1992
rodent = rodent (Novelli et al., 1990); cited from earlier work
tocopherol-depleted rats = details: rats fed tocopherol for two weeks after chronic iron-dextran (Dillard et al., 1983); cited from earlier work
humans = details: limited trials in humans (Clarkson 1995; Powers and Lennon 1999); cited from earlier work
[2] = liposomal tocopherol exposed to synthetic peroxynitrite (Christen et al., 1997); cited from earlier work
[3] = tested on: Normal, nontransgenic (NonTg) C57/B6 mice; test: rotorod performance task (motor function); format: in vivo; details: diet supplemented with additional 200 mg/kg tocopherol from 40 days of age; versus basal diet or α-tocopherol supplemented diet
Procedure: Normal, nontransgenic (NonTg) C57/B6 mice were studied for efficacy of γT on motor performance and/or enhanced muscle function. Beginning at 40 days of age, animals were fed a basal AIN93G laboratory animal diet containing 75 mg/kg α-tocopherol and negligible γ-tocopherol; or the same diet supplemented with an additional 200 mg/kg α-tocopherol or γ-tocopherol. Motor function was measured by a standard rotorod performance task (Klivenyi et al., 1999). Animals were placed on a motorized, rubber-coated metal rod that was set to rotate at 1 rpm increasing by 1 rpm every 10 seconds (Klivenyi et al., 1999). The speed of the rod rotation at which the mouse falls off is taken as a measure of motor competency (Klivenyi et al., 1999). Each mouse was tested in three trials every 10 days.

[4] = tested on: iron-induced lipid peroxidation and occlusive thrombus formation; details: Saldeen et al., 1999; cited from earlier work
[5] = relative to the corresponding reaction of αT (Cooney et al., 1993); cited from earlier work
[6] = tested on: methylcholanthrene-treated C3H/10T1/2 fibroblasts; details: methylcholanthrene-treated C3H/10T1/2 fibroblasts (Cooney et al., 1993); cited from earlier work

SMILES | absorption by the gut [1] | endurance during a swimming test (rodent) | inhibition of systemic lipid oxidation (tocopherol-depleted rats) | muscle endurance (humans) | effectiveness at inhibiting lipid hydroperoxide formation relative to αT [2] | packaging into lipoproteins ([1]; relative to αT (Traber et al., 1992)) | capability of performing the motor function task (rotorod) [3] | potency at inhibition of iron-induced lipid peroxidation and occlusive thrombus formation relative to αT [4] | effectiveness at inhibiting systemic lipid oxidation relative to αT (tocopherol-depleted rats) | rate of in vitro reaction with NO2 gas relative to αT [5] [times] | effectiveness at inhibiting neoplastic transformation relative to αT [6] [fold]
Cc1c(C)c2c(c(C)c1O)CC[C@@](C)(CCC[C@H](C)CCC[C@H](C)CCCC(C)C)O2 [α-tocopherol, reference compound] | absorbed equally well | extended rodent endurance | inhibited systemic lipid oxidation | did not extend muscle endurance | – | – | – | – | – | – | –
Cc1c(O)cc2c(c1C)O[C@](C)(CCC[C@H](C)CCC[C@H](C)CCCC(C)C)CC2 [γ-tocopherol] | absorbed equally well | – | inhibited systemic lipid oxidation | – | twice as effective | less effectively | significantly more capable of performing the motor function task | 20-30 times | approximately 35% | 6 | 4
